Reference: patent US20220009915A1, “CHEMICAL PROBES AND METHODS OF USE THEREOF” (City University of Hong Kong, priority 2020, published 2022)

Tests used:
Format in all cases: biochemical
Sirt2 = molecular target: T1, Sirt2 (Homo sapiens, UniProt Q8IXJ6); experiment: Fluorimeter delipoylation assay of probe KTlip with Sirt2
T1 construct: made in house
T1 sequence (Q8IXJ6 1-389): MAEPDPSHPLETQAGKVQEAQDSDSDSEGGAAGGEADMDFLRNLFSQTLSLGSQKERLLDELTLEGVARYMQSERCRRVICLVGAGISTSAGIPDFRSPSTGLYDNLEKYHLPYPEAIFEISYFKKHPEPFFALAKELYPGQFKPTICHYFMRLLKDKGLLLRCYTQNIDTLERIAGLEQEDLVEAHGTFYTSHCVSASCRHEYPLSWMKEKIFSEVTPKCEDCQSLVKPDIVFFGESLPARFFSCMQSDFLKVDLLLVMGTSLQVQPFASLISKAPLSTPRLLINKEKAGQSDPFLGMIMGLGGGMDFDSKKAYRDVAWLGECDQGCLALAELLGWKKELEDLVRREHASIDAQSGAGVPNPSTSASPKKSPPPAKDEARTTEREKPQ
Description: (§1) The probe KTlip following was first synthesized. The capacity of HDACs to recognize and remove the lipoyl group of KTlip was then examined by a fluorimeter assay. Briefly, KTlip was incubated with various HDACs at 37° C. in HEPES buffer (pH 8.0). The fluorescence of the enzymatic reactions was then measured accordingly. […] Further HPLC and MS analysis confirmed that the molecular weight of the newly generated peak corresponded to the expected tandem delipoylated/exchanged product (FIG. 4A,B). […] After enzymatic reaction with Sirt2, a shift of peak absorption from 380 nm to 480 nm was clearly observed. (FIG. 4C). Through detailed kinetic study, the first-order rate constant of the reaction was determined to be 0.013 min−1. […]
(§2) The probe KTlip was incubated with sirtuin and NAD+ at 37° C. in 20 mM HEPES buffer (pH 8.0) containing 150 mM NaCl, 1 mM MgCl2, and 2.7 mM KCl. […] When the enzymatic reaction was complete, the reaction was applied for absorption and fluorescence measurement. The parameter set for absorbance measurement was as follows: UV-visible light, collection region: 300-550 nm. The parameter set for fluorescence measurements was as follows: λex=480 nm, slit width: 5 nm, collection region: 510-600 nm.

Sirt1 = molecular target: T2, Sirt1 (Homo sapiens, UniProt Q96EB6); experiment: Fluorimeter delipoylation assay of probe KTlip with Sirt1; conditions: KTlip incubated with Sirt1 at 37° C. in HEPES buffer (pH 8.0); compared with Sirt2
T2 construct: made in house
T2 sequence (Q96EB6 1-747): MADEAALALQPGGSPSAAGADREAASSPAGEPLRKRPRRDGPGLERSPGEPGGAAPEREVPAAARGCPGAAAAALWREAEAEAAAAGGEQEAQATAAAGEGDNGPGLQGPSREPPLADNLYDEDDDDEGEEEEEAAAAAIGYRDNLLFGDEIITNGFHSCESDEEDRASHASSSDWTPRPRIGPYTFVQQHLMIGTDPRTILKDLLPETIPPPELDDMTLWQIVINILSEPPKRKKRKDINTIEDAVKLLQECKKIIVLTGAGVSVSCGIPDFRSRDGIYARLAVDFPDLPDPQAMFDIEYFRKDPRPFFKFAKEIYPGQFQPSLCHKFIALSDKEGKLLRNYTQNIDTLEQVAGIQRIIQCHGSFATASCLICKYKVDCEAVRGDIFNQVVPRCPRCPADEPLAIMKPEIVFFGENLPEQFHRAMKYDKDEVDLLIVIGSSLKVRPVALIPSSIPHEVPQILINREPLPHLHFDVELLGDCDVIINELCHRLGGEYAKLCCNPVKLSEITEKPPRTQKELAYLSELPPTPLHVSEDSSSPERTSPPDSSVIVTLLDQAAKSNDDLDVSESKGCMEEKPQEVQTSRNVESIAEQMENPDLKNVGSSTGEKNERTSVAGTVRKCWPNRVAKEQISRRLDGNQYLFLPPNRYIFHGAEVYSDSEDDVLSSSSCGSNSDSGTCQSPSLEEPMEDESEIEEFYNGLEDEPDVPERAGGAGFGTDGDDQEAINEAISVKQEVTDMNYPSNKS
Description: as §1, §2

Sirt3 = molecular target: T3, Sirt3 (Homo sapiens, UniProt Q9NTG7); experiment: Fluorimeter delipoylation assay of probe KTlip with Sirt3; conditions: KTlip incubated with Sirt3 at 37° C. in HEPES buffer (pH 8.0)
T3 construct: made in house
T3 sequence (Q9NTG7 1-399): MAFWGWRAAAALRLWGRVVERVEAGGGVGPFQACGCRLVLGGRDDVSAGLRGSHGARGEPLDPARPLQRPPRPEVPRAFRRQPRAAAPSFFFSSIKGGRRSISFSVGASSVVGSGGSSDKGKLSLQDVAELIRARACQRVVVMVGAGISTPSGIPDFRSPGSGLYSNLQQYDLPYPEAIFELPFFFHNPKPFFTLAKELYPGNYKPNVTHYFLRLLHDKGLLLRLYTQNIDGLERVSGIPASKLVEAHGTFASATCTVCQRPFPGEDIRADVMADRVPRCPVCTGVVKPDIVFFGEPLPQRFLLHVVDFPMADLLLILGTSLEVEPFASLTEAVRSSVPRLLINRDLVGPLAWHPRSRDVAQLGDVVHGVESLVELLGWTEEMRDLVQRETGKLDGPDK
Description: as §1, §2

Sirt5 = molecular target: T4, Sirt5 (Homo sapiens, UniProt Q9NXA8); experiment: Fluorimeter delipoylation assay of probe KTlip with Sirt5; conditions: KTlip incubated with Sirt5 at 37° C. in HEPES buffer (pH 8.0)
T4 construct: made in house
T4 sequence (Q9NXA8 37-310): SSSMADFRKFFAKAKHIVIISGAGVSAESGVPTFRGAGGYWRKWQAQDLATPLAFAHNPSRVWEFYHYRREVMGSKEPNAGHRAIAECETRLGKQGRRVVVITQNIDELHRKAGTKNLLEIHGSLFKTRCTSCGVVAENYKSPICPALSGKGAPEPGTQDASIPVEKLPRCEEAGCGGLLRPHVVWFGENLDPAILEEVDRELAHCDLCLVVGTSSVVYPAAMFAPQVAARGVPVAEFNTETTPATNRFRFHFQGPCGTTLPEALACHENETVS
Description: as §1, §2

Sirt6 = molecular target: T5, Sirt6 (Homo sapiens, UniProt Q8N6T7); experiment: Fluorimeter delipoylation assay of probe KTlip with Sirt6; conditions: KTlip incubated with Sirt6 at 37° C. in HEPES buffer (pH 8.0)
T5 construct: made in house
T5 sequence (Q8N6T7 whole entry, species assumed): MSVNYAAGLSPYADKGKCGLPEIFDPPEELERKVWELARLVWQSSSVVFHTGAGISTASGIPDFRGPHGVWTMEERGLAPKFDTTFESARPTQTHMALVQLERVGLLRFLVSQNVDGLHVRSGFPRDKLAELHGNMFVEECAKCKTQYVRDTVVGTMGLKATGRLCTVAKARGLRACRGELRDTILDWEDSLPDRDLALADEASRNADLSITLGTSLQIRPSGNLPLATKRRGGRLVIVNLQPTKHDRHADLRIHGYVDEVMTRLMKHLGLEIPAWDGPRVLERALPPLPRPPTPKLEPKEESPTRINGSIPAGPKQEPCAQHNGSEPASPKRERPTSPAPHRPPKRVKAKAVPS
Description: as §1, §2

HDAC8 [1] = molecular target: T6, HDAC8 (Homo sapiens, UniProt Q9BY41); experiment: Fluorimeter delipoylation assay of probe KTlip with HDAC8; conditions: KTlip incubated with HDAC8 at 37° C. in HEPES buffer (pH 8.0)
T6 sequence (Q9BY41 1-377): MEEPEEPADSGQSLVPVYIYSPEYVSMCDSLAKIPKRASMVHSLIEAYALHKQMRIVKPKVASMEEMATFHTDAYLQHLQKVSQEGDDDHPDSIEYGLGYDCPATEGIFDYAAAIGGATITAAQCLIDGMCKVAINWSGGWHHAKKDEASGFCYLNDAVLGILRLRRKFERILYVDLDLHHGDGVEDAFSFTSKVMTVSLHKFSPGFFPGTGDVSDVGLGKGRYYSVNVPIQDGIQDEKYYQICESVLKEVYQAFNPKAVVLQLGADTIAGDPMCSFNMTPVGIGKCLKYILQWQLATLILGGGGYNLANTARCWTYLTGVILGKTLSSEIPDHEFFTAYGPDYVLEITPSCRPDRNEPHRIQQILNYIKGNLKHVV
Description: as §1, §2

HDAC8 [2] = molecular target: T6, HDAC8; experiment: HPLC analysis of the enzymatic reaction of KTlip with HDAC8; conditions: KTlip 40 μM, HDAC8 80 ng/μl, 20 mM HEPES pH 8.0, 2 hours reaction
Description: FIG. 6 depicts HPLC analysis of the enzymatic reaction of KTlip (40 μM) with HDAC8 (80 ng/μl) in the reaction buffer (20 mM HEPES buffer at pH 8.0, 150 mM NaCl, 1 mM MgCl2 and 2.7 mM KCl).
The probe KTlip following was first synthesized. The capacity of HDACs to recognize and remove the lipoyl group of KTlip was then examined by a fluorimeter assay. Briefly, KTlip was incubated with various HDACs at 37° C. in HEPES buffer (pH 8.0). The fluorescence of the enzymatic reactions was then measured accordingly. […] Further HPLC and MS analysis confirmed that the molecular weight of the newly generated peak corresponded to the expected tandem delipoylated/exchanged product (FIG. 4A,B). […] After enzymatic reaction with Sirt2, a shift of peak absorption from 380 nm to 480 nm was clearly observed. (FIG. 4C). Through detailed kinetic study, the first-order rate constant of the reaction was determined to be 0.013 min−1. The Km value of KTlip obtained from the fluorescent method matched well with that from the traditional HPLC method (FIG. 5), underscoring that probe KTlip can serve as a useful tool for detecting enzymatic delipoylation activity.

Compound: CC(C)(C)OC(=O)N[C@@H](CCCCNC(=O)CCCCC1CCSS1)C(=O)NCCOCCOc1ccc([N+](=O)[O-])c2nonc12 (some centres unmarked) [KTlip]
- fluorescence increase (Sirt2; KTlip incubated with Sirt2 at 37° C. in HEPES buffer (pH 8.0), NAD+, λex 480 nm): 60 fold
- first-order rate constant of the reaction (Sirt2; delipoylation of KTlip by Sirt2, fit of fluorescence data to 1−exp(−kt)): 0.013 min⁻¹
- fluorescence signal (Sirt1): much lower fluorescence signal
- fluorescence increase (Sirt3): did not show a noticeable fluorescence increase
- fluorescence increase (Sirt5): did not show a noticeable fluorescence increase
- fluorescence increase (Sirt6): did not show a noticeable fluorescence increase
- fluorescence increase (HDAC8 [1]): did not show a noticeable fluorescence increase
- delipoylated product (HPLC) (HDAC8 [2]): no delipoylated product observed
